# Laboratory results: publication PMC11129181, “Histidine-Covalent Stapled Alpha-Helical Peptides Targeting hMcl-1” (Journal of Medicinal Chemistry, 2024)
# Read-outs that look alike come from different tables or passages of the source. Marks after values point to notes of the source that are not given here. Positions of bridges follow the written chain, without caps; N, C: chain ends. Non-standard residues stand in square brackets, D forms with d. Residues, ends and D or L forms follow the SMILES beside them. *: point of attachment. Benzoyl(2-OMe,5-SO2F) = COc1ccc(S(=O)(=O)F)cc1C(=O)*; Ala(1H-tetrazol-5-yl) = N[C@@H](Cc1nnn[nH]1)C(=O)O; S5 = C=CCCC[C@](C)(N)C(=O)O; Dap = NC[C@H](N)C(=O)O
# Key:
# A549 NucLight Red cells = experiment: Lytic effect on A549 NucLight Red cells (IncuCyte S3); format: cell-based, human; settings: for lytic effect on A549 NucLight Red cells: 100 μM, images 20 min after exposure; for lytic effect on A549 cells: high concentrations, nearly immediate cell bursting after exposure, fluorescence microscopy
# Source text: Amphipathic alpha-helical peptides have been reported to cause nonspecific membrane disruption events due to their constrained helical structure and amino acid composition.[2],[5],[37],[38] Lytic peptides in fact are highly efficient at binding and disrupting the negatively charged membrane of cells, as they are usually amphipathic and positively charged.[2],[5],[37],[38] Key determinants for cell permeability and the lytic effect are the combination of relatively high hydrophobic content and the number of positively charged residues in addition to the position of the staple within the alpha-helical peptide. Therefore, our design strategy included peptides with varying net charges and explored different positions of the staple within the peptide (Tables 1 and 2; Figure 2). To assess cellular permeability and to detect eventual nonspecific cell lytic effects, we tested selected stapled covalent peptides against the human nonsmall cell lung cancer (NSCLC) cell line A549 (Figure 7). To enhance live cell analysis, we used a cell line that was fluorescently labeled (A549 NucLight Red cells, Essen Bioscience), and cells were monitored for cell lysis via fluorescence microscopy using the IncuCyte S3 live-cell analysis system (Figure 7). […] Considering those data, together with the affinity for hMcl-1(172–323), alpha-helical content (Table 2), and covalent complex formation as detected by SDS gel electrophoresis, mass spectrometry, NMR, and X-ray crystallography, we selected agent 155H1, which was further tested in preliminary cell permeability and cellular efficacy studies.
# Figure 7 Lytic effect of stapled peptides on the NSCLC A549 NucLight Red cells detected via the IncuCyte S3 live-cell analysis system. The schematic illustrations depict the lytic (panel A) and nonlytic (panel B) effects of stapled agents on the cells. Representative images of cells collected 20 min after exposure to 100 μM lytic stapled compound 1 (panel A) or nonlytic stapled peptide 155H1 (panel B), along with untreated (DMSO only) cells as a control. Note: Images were taken 20 min after plates were placed inside the IncuCyte S3 to minimize condensation that can affect image quality. The scale bar denotes 100 μm.
# Nonsmall cell lung cancer (NSCLC) A549 NucLight Red cells were purchased from Essen Bioscience and cultured in Ham’s F-12 nutrient mixture with GlutaMAX-1 (Gibco) supplemented with 10% FBS and 0.5 μg/mL puromycin. Cells were maintained in a humidified incubator at 37 °C in 5% CO2. These cells have nuclei-fluorescently labeled red. Anti-hMcl-1 and anti-β-tubulin antibodies were purchased from Cell Signaling Technology (#5453) and Santa Cruz Biotechnology (sc-58884), respectively. HRP-conjugated goat antimouse and antirabbit secondary antibodies were purchased from ThermoFisher Scientific.
# hMcl-1(172–323) = target: T1, hMcl-1(172–323) (Homo sapiens, UniProt Q07820); experiment: DELFIA displacement of biotinylated-BH3 peptide from hMcl-1(172–323); format: binding
# T1 construct: made in house; host or cells: E. coli BL21 (DE3) gold pLysS
# T1 sequence (Q07820 172-323): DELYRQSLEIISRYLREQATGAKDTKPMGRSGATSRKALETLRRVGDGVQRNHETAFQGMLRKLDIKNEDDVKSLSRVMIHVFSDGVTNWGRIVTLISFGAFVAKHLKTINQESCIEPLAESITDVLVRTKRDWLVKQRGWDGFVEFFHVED
# Experimental: At the end of a 2 h incubation, plates were washed 3 times. Subsequently, a solution of 6His-tagged-hMcl-1(172–323) or 6His-tagged-hBfl-1(1–149) protein and the test peptides were preincubated for 2 h and added to the washed streptavidin-coated plates along with a Eu–N1-labeled anti-6xHis antibody (PerkinElmer, 1:2000) solution and further incubated for 2 h on a microplate shaker. Plates were then washed 3 times, and each well was incubated with 200 μL of the enhancement solution (PerkinElmer) for 10 min. Fluorescent readings (VICTOR X5 microplate reader) were then measured by using the excitation and emission wavelengths of 340 and 615 nm, respectively. Fluorescent counts were normalized to those of DMSO wells and reported as % inhibition, and Prism 10 (GraphPad) was used to calculate the IC50 values. Protein, peptide, and antibody solutions were prepared in a DELFIA assay buffer (PerkinElmer), and all of the incubations were performed at room temperature. Each well received a final DMSO concentration of 1%. The final concentrations of 6His-tagged-hMcl-1(172–323) and 6His-tagged-hBfl-1(1–149) used were 16 and 15 nM, respectively.
# [1] = Aqueous solubility (observation); format: physicochemical; settings: observed during CD measurements
# Source text: (§1) Furthermore, to verify that the peptides preferentially assumed a stabilized alpha-helical conformation in the stapled version compared to the linear peptide, we performed CD measurements. Typical curves for the linear peptide (138E12, blue) and a stapled peptide (155H1, red) are reported in Figure 3, while CD data for all other peptides are reported as the Supporting Information (Supporting Figures S3–S14). Using these measurements and the software BeStSel (https://bestsel.elte.hu),[34] we could calculate the percentage of alpha-helical content for each peptide (Table 2). Most stapled peptides, perhaps except compound 4 and compound 7, assumed nearly complete alpha-helical conformation in aqueous buffer (Table 2 and Supporting Figures S3–S14).
# [2] = Circular dichroism, percentage of alpha-helix (BeStSel); format: physicochemical; settings: 25 °C
# Source text: as §1
# Circular dichroism spectra were acquired on a Jasco 815 spectropolarimeter. Samples were prepared in MQ Water or in 15 mM phosphate buffer, pH 7.5. The experiments were conducted at 25 °C, using a 1 mm-path length quartz cell to record data from 190 to 260 nm in 1 nm increments. The response time was 2 s. The data were then converted to Δε(M^–1·cm^–1), and the percentage of alpha-helix was calculated using BeStSel (https://bestsel.elte.hu) software.[34]
# [3] = DELFIA displacement assay, n = 2, 16 nM 6His-hMcl-1(172–323), protein and peptide preincubated 2 h, room temperature, 1% DMSO, read-out: IC50 (nM) hMcl-1(172–323)
molecule,measurement,setting,value
"CC[C@H](C)[C@H](NC(=O)[C@H](CNC(=O)c1cc(S(=O)(=O)F)ccc1OC)NC(C)=O)C(=O)N[C@@H](C)C(=O)N[C@@H](CCC(=O)O)C(=O)N[C@@H](CCC(N)=O)C(=O)N[C@@H](CC(C)C)C(=O)N[C@@H](CCCNC(=N)N)C(=O)N[C@@]1(C)CCC/C=C\CCC[C@@](C)(C(=O)N[C@@H](Cc2ccccc2)C(N)=O)NC(=O)[C@H](CC(=O)O)NC(=O)CNC(=O)[C@H]([C@@H](C)CC)NC1=O [11 (155H1)] (Ac-[Dap](Benzoyl(2-OMe,5-SO2F))IAEQLR[S5]IGD[S5]F-NH2; staple (Z) 8-12)",lytic effect on A549 NucLight Red cells,A549 NucLight Red cells,nonlytic
"CC[C@H](C)[C@H](NC(=O)[C@H](CCCNC(=N)N)NC(=O)[C@H](CCCNC(=N)N)NC(=O)[C@H](CC(C)C)NC(=O)[C@H](CCC(N)=O)NC(=O)[C@]1(C)CCC/C=C/CCC[C@](C)(NC(C)=O)C(=O)N[C@@H](CNC(=O)c2cc(S(=O)(=O)F)ccc2OC)C(=O)N[C@@H]([C@@H](C)CC)C(=O)N[C@@H](C)C(=O)N1)C(=O)NCC(=O)N[C@@H](CC(=O)O)C(=O)N[C@@H](CCCNC(=N)N)C(=O)N[C@@H](Cc1ccccc1)C(N)=O [compound 1] (Ac-[S5][Dap](Benzoyl(2-OMe,5-SO2F))IA[S5]QLRRIGDRF-NH2; staple (E) 1-5)",lytic effect on A549 NucLight Red cells,A549 NucLight Red cells,lytic
same,lytic effect on A549 cells,A549 NucLight Red cells,lytic effect was observed
"CC[C@H](C)[C@H](NC(=O)[C@H](CCCNC(=N)N)NC(=O)[C@H](CCCNC(=N)N)NC(=O)[C@H](CC(C)C)NC(=O)[C@H](CCC(N)=O)NC(=O)[C@]1(C)CCC/C=C/CCC[C@](C)(NC(C)=O)C(=O)N[C@@H](CNC(=O)c2cc(S(=O)(=O)F)ccc2OC)C(=O)N[C@@H]([C@@H](C)CC)C(=O)N[C@@H](C)C(=O)N1)C(=O)NCC(=O)N[C@@H](Cc1nn[nH]n1)C(=O)N[C@@H](CCCNC(=N)N)C(=O)N[C@@H](Cc1ccccc1)C(N)=O [compound 2] (Ac-[S5][Dap](Benzoyl(2-OMe,5-SO2F))IA[S5]QLRRIG[Ala(1H-tetrazol-5-yl)]RF-NH2; staple (E) 1-5)",IC50,hMcl-1(172–323),633 ± 30 nM
same,lytic effect on A549 cells,A549 NucLight Red cells,lytic effect was observed
"CC[C@H](C)[C@H](NC(=O)[C@H](C)NC(=O)[C@H](CCCNC(=N)N)NC(=O)[C@H](CC(C)C)NC(=O)[C@H](CCC(N)=O)NC(=O)[C@]1(C)CCC/C=C/CCC[C@](C)(NC(C)=O)C(=O)N[C@@H](CNC(=O)c2cc(S(=O)(=O)F)ccc2OC)C(=O)N[C@@H]([C@@H](C)CC)C(=O)N[C@@H](C)C(=O)N1)C(=O)NCC(=O)N[C@@H](CC(=O)O)C(=O)N[C@@H](C)C(=O)N[C@@H](Cc1ccccc1)C(N)=O [compound 4] (Ac-[S5][Dap](Benzoyl(2-OMe,5-SO2F))IA[S5]QLRAIGDAF-NH2; staple (E) 1-5)",aqueous solubility,[1],limited aqueous solubility
"CC[C@H](C)[C@H](NC(=O)[C@H](CNC(=O)c1cc(S(=O)(=O)F)ccc1OC)NC(C)=O)C(=O)N[C@@H](C)C(=O)N[C@@]1(C)CCC/C=C\CCC[C@@](C)(C(=O)N[C@H](C(=O)NCC(=O)N[C@@H](CC(=O)O)C(=O)N[C@@H](C)C(=O)N[C@@H](Cc2ccccc2)C(N)=O)[C@@H](C)CC)NC(=O)[C@H](CCCNC(=N)N)NC(=O)[C@H](CC(C)C)NC(=O)[C@H](CCC(N)=O)NC1=O [compound 7] (Ac-[Dap](Benzoyl(2-OMe,5-SO2F))IA[S5]QLR[S5]IGDAF-NH2; staple (Z) 4-8)",aqueous solubility,[1],limited aqueous solubility
"Ac-Dap(2MeO,5FSB)IAEQLRRIGDRF-CONH2 (Ac-[Dap](2‑methoxy‑5‑fluorosulfonylbenzoyl)IAEQLRRIGDRF-NH2) [138E12, previously reported linear Lys 234-covalent BH3 peptide with aryl-sulfonyl fluoride, reference compound]",IC50,hMcl-1(172–323); [3],18 ± 4 nM
"Ac-Dap(2MeO,5FSB)IAEQLRRIGDRF-CONH2 [138E12, previously reported linear Lys 234-covalent BH3 peptide with aryl-sulfonyl fluoride, reference compound]",% alpha-helix,"[2]; CD spectra measured both in water and in 15 mM phosphate buffer pH 7.5, BeStSel",48.3 ^b %
"Ac-Dap(2MeO,5FSB)IXEQLXRIGDRF-CONH2 (sidechain bridge or staple) ({Ac-Dap(2MeO,5FSB)}-I[S5]EQL[S5]RIGDRF-NH2; staple 2-6) [compound 10, stapled covalent BH3 peptide, staple at positions 4 and 8]",% alpha-helix,"[2]; CD, 190–260 nm, MQ water or 15 mM phosphate buffer pH 7.5, calculated using BeStSel",100%
same,IC50,hMcl-1(172–323); [3],174 ± 1 nM
